# Read-outs that look alike come from different tables or passages of the source.
# Experiments:
# [1] = target: T1, type Ia cephalosporinase from Enterobacter cloacae (Enterobacter cloacae, UniProt P05364); test: Cell-free enzyme assay, inhibition of nitrocefin hydrolysis; assay type: biochemical
# T1 construct: purchased Miles Laboratories
# Procedure: (§1) The test compound is preincubated with enzyme for 20 min. at 30° C. and pH 7. Chromogenic cephalosporin substrate, nitrocefin, is added and its initial rate of hydrolysis is recorded spectrophotometrically. Three enzyme preparations were employed:
# (c) the type Ia cephalosporinase from Enterobacter cloacae purchased from Miles Laboratories.
# (§2) Included for comparison purposes were the antibiotics cloxacillin and dicloxacillin. I50 (μM) is calculated as the concentration necessary to inhibit the rate of nitrocefin hydrolysis by 50%.
# [2] = target: T2, inducible penicillinase from Staphylococcus aureus 1059B (Staphylococcus aureus, UniProt P00807); test: as above; assay type: biochemical
# T2 construct: the inducible penicillinase from Staphylococcus aureus 1059B; endogenous in cells; host or cells: Staphylococcus aureus 1059B
# T2 sequence (P00807 25-281): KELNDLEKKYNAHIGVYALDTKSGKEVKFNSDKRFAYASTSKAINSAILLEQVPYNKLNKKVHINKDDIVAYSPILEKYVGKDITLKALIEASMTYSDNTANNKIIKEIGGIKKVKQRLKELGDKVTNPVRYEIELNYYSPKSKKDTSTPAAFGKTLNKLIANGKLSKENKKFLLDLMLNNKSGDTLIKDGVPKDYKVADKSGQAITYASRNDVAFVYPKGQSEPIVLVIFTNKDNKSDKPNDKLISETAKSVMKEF
# Procedure: as §1
# (a) the inducible penicillinase from Staphylococcus aureus 1059B,
# as §2
# [3] = tested on: E. Coli 7289; test: In vitro MIC by agar dilution, alone and mecillinam potentiation; assay type: cell-based; details: single agent, Mueller-Hinton agar, overnight 37° C.
# Procedure: (§3) The efficacy of putative β-lactamase inhibitors is assessed by determining the effect of the test compounds on the minimal inhibitory concentrations (MICs) of β-lactamase-sensitive antibiotics against bacterial strains known to produce β-lactamases.
# (§4) The antibacterial activity of the β-lactamase inhibitor against the test strains is determined by a standard agar dilution method. Serial two-fold dilutions of the β-lactamase inhibitor are prepared in water to give concentrations 10 times the final desired concentrations. The aqueous dilutions are then further diluted 1:10 in Mueller-Hinton (MH) agar. These agar mixtures are poured into petri plates and allowed to harden. Each plate, including a drug-free control plate, is inoculated by means of a Steers replicator with 0.05 mL of 10^-4 dilutions of the test organisms. The 10^'4 dilutions of the organisms are prepared in MH broth from overnight TS broth cultures. The plates are examined for growth after overnight incubation at 37° C. The lowest drug concentration at which three or fewer colonies are observed is considered to be the MIC.
# (§5) The β-lactamase inhibitor is then tested for potentiation of the antibiotic mecillinam. Aqueous solutions are prepared containing serial two-fold dilutions of mecillinam in the presence of the β-lactamase inhibitor at a constant concentration 2-4 fold less than its MIC for the most sensitive of the test organisms. The same procedure as above is then followed. Controls include a drug-free plate and a plate containing the β-lactamase inhibitor at the concentration used in the test. The MIC of mecillinam as a single agent is also determined at the same time.
# [4] = tested on: S. Marcescens S5; test: as above; assay type: cell-based; details: single agent, Mueller-Hinton agar, overnight 37° C.
# Procedure: as §3, §4, §5
# [5] = tested on: E. Coli K12R1; test: as above; assay type: cell-based; details: single agent, Mueller-Hinton agar, overnight 37° C.
# Procedure: as §3, §4, §5
# [6] = tested on: E. Cloacae P99; test: as above; assay type: cell-based
# Procedure: as §3, §4, §5
# [7] = tested on: E. Coli ST 323; test: as above; assay type: cell-based; details: single agent, Mueller-Hinton agar, overnight 37° C.
# Procedure: as §3, §4, §5
# [8] = tested on: P. Aeruginosa 5700; test: as above; assay type: cell-based
# Procedure: as §3, §4, §5
# [9] = target: T3, constitutive broad-spectrum TEM type beta-lactamase mediated by the resistance transfer factor R1 in Escherichia coli 1263B (Escherichia coli, UniProt P62593); test: Cell-free enzyme assay, inhibition of nitrocefin hydrolysis; assay type: biochemical; details: preincubated with enzyme 20 min, 30° C., pH 7; nitrocefin substrate; read-out: I50, Escherichia coli R1
# T3 construct: mediated by the resistance transfer factor R1 in Escherichia coli 1263B; endogenous in cells; host or cells: Escherichia coli 1263B carrying resistance transfer factor R1
# T3 sequence (P62593 24-286 limits assumed): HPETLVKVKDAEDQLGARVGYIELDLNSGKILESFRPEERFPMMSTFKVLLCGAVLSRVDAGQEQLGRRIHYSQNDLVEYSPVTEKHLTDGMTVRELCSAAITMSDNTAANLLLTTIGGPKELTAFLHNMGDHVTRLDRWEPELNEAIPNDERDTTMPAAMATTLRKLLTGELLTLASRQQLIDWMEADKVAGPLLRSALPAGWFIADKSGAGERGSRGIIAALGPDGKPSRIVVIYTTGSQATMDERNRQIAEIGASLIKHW
# Procedure: as §1
# (b) the constitutive broad-spectrum TEM type beta-lactamase mediated by the resistance transfer factor R1 in Escherichia coli 1263B, and
# as §2
# [10] = preincubated with enzyme 20 min, 30° C., pH 7, nitrocefin substrate, read-out: I50, Enterobacter cloacae
# [11] = preincubated with enzyme 20 min, 30° C., pH 7, nitrocefin substrate, read-out: I50, Staphylococcus aureus
# [12] = Escherichia coli, read-out: MIC
# T1 sequence (P05364 21-381): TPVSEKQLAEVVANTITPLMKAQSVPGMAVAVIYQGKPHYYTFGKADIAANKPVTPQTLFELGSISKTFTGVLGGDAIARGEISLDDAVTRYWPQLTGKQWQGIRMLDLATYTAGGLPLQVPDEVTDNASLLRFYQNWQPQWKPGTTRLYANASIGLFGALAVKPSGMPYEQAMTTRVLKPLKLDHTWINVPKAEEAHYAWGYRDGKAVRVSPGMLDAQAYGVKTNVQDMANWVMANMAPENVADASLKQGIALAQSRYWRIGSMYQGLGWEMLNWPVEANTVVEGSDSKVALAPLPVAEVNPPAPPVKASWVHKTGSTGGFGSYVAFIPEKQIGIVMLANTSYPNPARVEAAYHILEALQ
smiles,measurement,setting,value
"C[C@]12C[C@@]1(C(=O)O)N1C(=O)C[C@H]1S2(=O)=O [compound of formula I, [2S-(2α,4α,6α)]-4-Methyl-8-oxo-5-thia-1-azatricyclo[4.2.0.0^2,4]octane-2-carboxylic acid 5,5-dioxide]",IC50,[1],69 µM
same,IC50,[2],6.7 µM
same,MIC,[3],Inert
same,MIC,[4],Inert
same,MIC,[5],Inert
same,MIC,"[6]; E. Cloacae P99, single agent, Mueller-Hinton agar, overnight 37° C.",Inert
same,MIC,[7],Inert
same,MIC,"[8]; P. Aeruginosa 5700, single agent, Mueller-Hinton agar, overnight 37° C.",Inert
same,IC50,[9],1.1 µM
Cc1onc(-c2ccccc2Cl)c1C(=O)N[C@@H]1C(=O)N2[C@@H]1SC(C)(C)[C@@H]2C(=O)O [Cloxacillin],IC50,[1]; [10],0.0015 µM
same,IC50,[2]; [11],365 µM
same,IC50,[9],68 µM
Cc1onc(-c2c(Cl)cccc2Cl)c1C(=O)N[C@@H]1C(=O)N2[C@@H]1SC(C)(C)[C@@H]2C(=O)O [Dicloxacillin],IC50,[1]; [10],0.0014 µM
same,IC50,[2]; [11],96 µM
same,IC50,[9],32 µM
"CC1(C)S[C@@H]2[C@H](/N=C/N3CCCCCC3)C(=O)N2[C@H]1C(=O)O [Mecillinam, mecillinam]",MIC,[3]; [12],32 µg/mL
same,MIC,"[4]; Serratia marcescens, read-out: MIC",4 µg/mL
same,MIC,[5]; [12],1 µg/mL
same,MIC,[6]; Enterobacter cloacae,0.03 µg/mL
same,MIC,[7]; [12],4 µg/mL
same,MIC,[8]; Pseudomonas aeruginosa,> 128 µg/mL

# — patent US4393003A, “β-Lactamase inhibitors” (Hoffmann-La Roche Inc., priority 1981, dated 1983)
